Data as given in ChEMBL document CHEMBL1134823, “Human beta3 adrenergic receptor agonists containing cyanoguanidine and nitroethylenediamine moieties” (Bioorg Med Chem Lett, 2001).

How the values were obtained:
[1] = target: T1, Beta-2 adrenergic receptor (Homo sapiens, UniProt P07550); test: Binding affinity to the human beta-2 adrenergic receptor assayed using [125I]iodocyanopindolol as radioligand in CHO cells; assay type: cell-based
Target sequence in this assay (P07550 whole entry): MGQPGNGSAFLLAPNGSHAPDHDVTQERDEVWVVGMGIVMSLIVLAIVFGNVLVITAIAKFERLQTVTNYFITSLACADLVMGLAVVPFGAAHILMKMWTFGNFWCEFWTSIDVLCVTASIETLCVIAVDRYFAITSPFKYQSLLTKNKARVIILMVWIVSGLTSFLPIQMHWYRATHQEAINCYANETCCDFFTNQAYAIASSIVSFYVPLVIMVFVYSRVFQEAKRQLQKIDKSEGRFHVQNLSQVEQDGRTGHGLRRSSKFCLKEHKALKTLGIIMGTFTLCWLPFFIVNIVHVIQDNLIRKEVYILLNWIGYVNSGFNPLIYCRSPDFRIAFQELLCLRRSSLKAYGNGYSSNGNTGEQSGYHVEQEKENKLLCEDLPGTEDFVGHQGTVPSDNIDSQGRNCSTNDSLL

[2] = target: T2, Beta-1 adrenergic receptor (Homo sapiens, UniProt P08588); test: Binding affinity for human Beta-1 adrenergic receptor using [125I]iodocyanopindolol as radioligand in CHO cells; assay type: cell-based
Target sequence in this assay (P08588 whole entry): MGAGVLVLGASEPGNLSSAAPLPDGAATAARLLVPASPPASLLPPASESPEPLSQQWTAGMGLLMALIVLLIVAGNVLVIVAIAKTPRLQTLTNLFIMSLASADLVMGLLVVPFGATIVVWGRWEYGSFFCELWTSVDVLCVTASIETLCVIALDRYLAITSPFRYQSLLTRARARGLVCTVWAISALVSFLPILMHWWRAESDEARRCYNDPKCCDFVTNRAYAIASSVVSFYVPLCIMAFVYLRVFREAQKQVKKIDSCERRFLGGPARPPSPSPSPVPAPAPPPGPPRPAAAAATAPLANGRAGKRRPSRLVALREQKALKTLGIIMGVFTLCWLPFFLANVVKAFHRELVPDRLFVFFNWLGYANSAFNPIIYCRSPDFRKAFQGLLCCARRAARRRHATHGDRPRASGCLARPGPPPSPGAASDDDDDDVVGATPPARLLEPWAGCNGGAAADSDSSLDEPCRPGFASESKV

[3] = target: T3, Beta-3 adrenergic receptor (Homo sapiens, UniProt P13945); test: In vitro efficacy at human beta-3 adrenergic receptor.
Target sequence in this assay (P13945 whole entry): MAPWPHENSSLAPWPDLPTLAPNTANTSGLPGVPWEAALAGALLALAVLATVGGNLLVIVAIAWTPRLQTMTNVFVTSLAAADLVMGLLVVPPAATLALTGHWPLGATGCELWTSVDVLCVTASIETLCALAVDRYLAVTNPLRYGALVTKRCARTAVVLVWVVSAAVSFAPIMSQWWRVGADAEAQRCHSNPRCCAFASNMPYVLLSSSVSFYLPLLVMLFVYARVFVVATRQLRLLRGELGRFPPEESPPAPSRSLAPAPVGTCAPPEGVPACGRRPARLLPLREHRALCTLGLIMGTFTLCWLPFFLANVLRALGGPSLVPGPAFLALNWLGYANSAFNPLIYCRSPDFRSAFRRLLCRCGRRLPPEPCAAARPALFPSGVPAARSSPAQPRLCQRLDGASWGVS

[4] = target: T3, Beta-3 adrenergic receptor; test: In vitro maximum activation of adenylyl cyclase compared to isoproterenol.; assay type: functional
Target sequence in this assay (P13945 whole entry, looked up): as the sequence (P13945 whole entry) above

[5] = target: T2, Beta-1 adrenergic receptor; test: Percent of maximal stimulation was determined as adenylate cyclase activation using isoproterenol as standard; assay type: functional
Target sequence in this assay (P08588 whole entry, looked up): as the sequence (P08588 whole entry) above

[6] = target: T1, Beta-2 adrenergic receptor; test: Percent of maximal stimulation was determined as adenylate cyclase activation using isoproterenol as standard at a concentration of 10000 nM
Target sequence in this assay (P07550 whole entry, looked up): as the sequence (P07550 whole entry) above

[7] = target: T1, Beta-2 adrenergic receptor; test: (§1) Percent of maximal stimulation was determined as adenylate cyclase activation using isoproterenol as standard at a concentration of 10000 nM; assay type: functional
Target sequence in this assay (P07550 whole entry, looked up): as the sequence (P07550 whole entry) above

[8] = target: T2, Beta-1 adrenergic receptor; test: as §1; assay type: functional
Target sequence in this assay (P08588 whole entry, looked up): as the sequence (P08588 whole entry) above

[9] = target: T3, Beta-3 adrenergic receptor; test: Percent of maximal stimulation was determined as adenylate cyclase activation using isoproterenol as standard at a concentration of 1000 nM; assay type: functional
Target sequence in this assay (P13945 whole entry, looked up): as the sequence (P13945 whole entry) above

[10] = target: T2, Beta-1 adrenergic receptor; test: Binding affinity towards human Beta-1 adrenergic receptor
Target sequence in this assay (P08588 whole entry): as the sequence (P08588 whole entry) above

| Compound | IC50 [1] [nM] | IC50 [2] [nM] | EC50 [3] [nM] | Activation [4] [%] | also measured |
| --- | --- | --- | --- | --- | --- |
| O=[N+]([O-])/C=C(\Nc1ccc(CCNC[C@H](O)c2cccnc2)cc1)Nc1ccc2ccccc2c1 | 3400 | 820 | 180 | 74 |  |
| O=[N+]([O-])/C=C(\Nc1ccc(CCNC[C@H](O)c2cccnc2)cc1)Nc1cccc2ccccc12 | 370 | 1800 | 140 | 79 |  |
| NC(=O)c1cccc(N/C(=C/[N+](=O)[O-])Nc2ccc(CCNC[C@H](O)c3cccnc3)cc2)c1 | 1200 | 790 | 10 | 101 |  |
| N#CN/C(=N\c1ccc2c(c1)CCN2c1nc(-c2ccc(OC(F)(F)F)cc2)cs1)Nc1ccc(CCNC[C@H](O)c2cccnc2)cc1 |  |  |  | 82 | Activation [5]: 73%; Activation [6]: 51% |
| N#CN=C(Nc1ccc(CCNC[C@H](O)c2cccnc2)cc1)Nc1ccc2ccccc2c1 | 50 | 740 | 130 |  |  |
| N#CN=C(Nc1ccc2c(c1)CCN2c1nc(-c2ccc(OC(F)(F)F)cc2)cs1)Nc1ccc2cc(CCNC[C@H](O)c3cccnc3)ccc2c1 | 7100 | 2300 | 19 |  |  |
| N#CN/C(=N\c1ccc2c(c1)CCN2c1nc(-c2ccc(OC(F)(F)F)cc2)cs1)Nc1ccc2cc(CCNC[C@H](O)c3cccnc3)ccc2c1 |  |  |  | 62 | Activation [7]: 11%; Activation [8]: 2% |
| O=[N+]([O-])/C=C(\Nc1ccc(CCNC[C@H](O)c2cccnc2)cc1)Nc1cccc(Oc2ccccc2)c1 | 220 | 830 | 120 | 93 |  |
| CCCCCCCCc1csc(N2CCc3c(N/C(=N/c4ccc(CCNC[C@H](O)c5cccnc5)cc4)NC#N)cccc32)n1 | 930 | 1200 | 13 | 62 | Activation [7]: 25%; Activation [8]: 11% |
| N#CN/C(=N\c1cccc2c1CCN2c1nc(-c2ccc(OC(F)(F)F)cc2)cs1)Nc1ccc(CCNC[C@H](O)c2cccnc2)cc1 | > 10000 | 8400 | 57 | 72 | Activation [7]: 20%; Activation [8]: 6% |
| N#CN/C(=N\c1ccc(CCNC[C@H](O)c2cccnc2)cc1)Nc1cccc(C(N)=O)c1 | 400 | 980 | 150 | 76 |  |
| CCCCCCCCc1csc(N2CCc3cc(N/C(=N/c4ccc(CCNC[C@H](O)c5cccnc5)cc4)NC#N)ccc32)n1 |  |  |  | 39 |  |
| CCCCCCCCc1csc(N2CCc3ccc(N/C(=N/c4ccc(CCNC[C@H](O)c5cccnc5)cc4)NC#N)cc32)n1 | 66 | 74 | 59 | 38 |  |
| N#CN=C(Nc1ccc(CCNC[C@H](O)c2cccnc2)cc1)Nc1cccc(I)c1 | 67 | 230 | 59 |  |  |
| N#CN/C(=N\c1ccc2c(c1)N(c1nc(-c3ccc(OC(F)(F)F)cc3)cs1)CC2)Nc1ccc(CCNC[C@H](O)c2cccnc2)cc1 | 710 | 620 |  |  | Activation [7]: 20%; Activation [8]: 27%; Activation [9]: 11% |
| N#CN/C(=N\c1cccc(Oc2ccccc2)c1)Nc1ccc(CCNC[C@H](O)c2cccnc2)cc1 | 40 | 240 | 26 | 70 |  |

The next lines start with results.

| IC50 [1] [nM] | IC50 [2] [nM] | EC50 [3] [nM] | Activation [4] [%] | Compound | also measured |
| --- | --- | --- | --- | --- | --- |
| 170 | 730 | 100 | 38 | N#CN/C(=N\c1ccc(I)cc1)Nc1ccc(CCNC[C@H](O)c2cccnc2)cc1 |  |
| 140 | 290 | 89 | 72 | N#CN/C(=N\c1cc(Cl)cc(Cl)c1)Nc1ccc(CCNC[C@H](O)c2cccnc2)cc1 |  |
|  |  |  | 41 | N#CN/C(=N\c1ccc2ccccc2c1)Nc1ccc(CCNC[C@H](O)c2cccnc2)cc1 |  |
| 1200 | 1100 | 22 | 97 | O=[N+]([O-])/C=C(\Nc1ccc(CCNC[C@H](O)c2cccnc2)cc1)Nc1cccc(I)c1 |  |
| 260 | 110 | 5.3 |  | CCCCCCCCc1csc(N2CCc3cc(N/C(S)=N/c4ccc(CCNC[C@H](O)c5cccnc5)cc4)ccc32)n1 |  |
|  |  |  | 51 | N#CN/C(=N\c1cccc(I)c1)Nc1ccc(CCNC[C@H](O)c2cccnc2)cc1 |  |
| 5600 | 3800 | 35 | 85 | O=[N+]([O-])/C=C(\Nc1ccc(CCNC[C@H](O)c2cccnc2)cc1)Nc1cc(Cl)cc(Cl)c1 |  |
| 570 | 480 | 42 |  | N#CN=C(Nc1ccc(CCNC[C@H](O)c2cccnc2)cc1)Nc1cccc2ccccc12 |  |
|  |  |  | 69 | N#CN/C(=N\c1cccc(F)c1)Nc1ccc(CCNC[C@H](O)c2cccnc2)cc1 |  |
| 1300 | 2500 | 0.93 |  | CCCCCCCCc1csc(N2CCc3cc(S(=O)(=O)Nc4ccc(CCNC[C@H](O)c5cccnc5)cc4)ccc32)n1 |  |
|  |  |  | 64 | N#CN/C(=N\c1cccc2ccccc12)Nc1ccc(CCNC[C@H](O)c2cccnc2)cc1 |  |
| 200 | 590 | 100 |  | N#CN=C(Nc1ccc(CCNC[C@H](O)c2cccnc2)cc1)Nc1cccc(F)c1 |  |
| 180 | 65 | 13 |  | N#CN=C(Nc1ccc(CCNC[C@H](O)c2cccnc2)cc1)Nc1ccc2c(c1)CCN2c1nc(-c2ccc(OC(F)(F)F)cc2)cs1 | EC50 [10]: 41 nM |
| 50 | 16 | 11 |  | CCCCCCCCc1csc(N2CCc3cc(NC(=NC#N)Nc4ccc(CCNC[C@H](O)c5cccnc5)cc4)ccc32)n1 |  |
| 2400 | 3000 | 300 | 79 | O=[N+]([O-])/C=C(\Nc1ccc(CCNC[C@H](O)c2cccnc2)cc1)Nc1cccc(F)c1 |  |
